# According to ChEMBL document CHEMBL5055672, “Design, Synthesis, Biological Evaluation, and Computational Studies of Novel Fluorinated Candidates as PI3K Inhibitors: Targeting Fluorophilic Binding Sites” (J Med Chem, 2021):
# Key:
# MCF7 [1] = assay: Cytotoxicity against human MCF7 cells assessed as growth inhibition at 10 uM after 48 hrs by sulforhodamine B assay; format: functional; conditions: read-out: GI
# MCF7 [2] = assay: Antiproliferative activity against human MCF7 cells assessed as inhibition of cell growth incubated for 48 hrs by MTT assay; format: functional, cell-based; conditions: MCF7, 48 h
# MCF-10A = assay: Cytotoxicity against human MCF10A cells assessed as inhibition of cell growth incubated for 48 hrs by MTT assay; format: cell-based
# [3] = Selectivity index, ratio of IC50 for human MCF-10A cells to IC50 for human MCF7 cells; format: toxicity; conditions: MCF-10A cells versus MCF7 cells, read-out: Ratio IC50
# [4] = molecular target: Phosphatidylinositol 4,5-bisphosphate 3-kinase catalytic subunit alpha isoform (Homo sapiens, UniProt P42336); assay: Inhibition of PI3Kalpha (unknown origin) using PIP2 as substrate preincubated for 10 mins followed by substrate addition and measured after 1 hr by ELISA
# Sequence of Phosphatidylinositol 4,5-bisphosphate 3-kinase catalytic subunit alpha isoform (P42336 whole entry, canonical isoform): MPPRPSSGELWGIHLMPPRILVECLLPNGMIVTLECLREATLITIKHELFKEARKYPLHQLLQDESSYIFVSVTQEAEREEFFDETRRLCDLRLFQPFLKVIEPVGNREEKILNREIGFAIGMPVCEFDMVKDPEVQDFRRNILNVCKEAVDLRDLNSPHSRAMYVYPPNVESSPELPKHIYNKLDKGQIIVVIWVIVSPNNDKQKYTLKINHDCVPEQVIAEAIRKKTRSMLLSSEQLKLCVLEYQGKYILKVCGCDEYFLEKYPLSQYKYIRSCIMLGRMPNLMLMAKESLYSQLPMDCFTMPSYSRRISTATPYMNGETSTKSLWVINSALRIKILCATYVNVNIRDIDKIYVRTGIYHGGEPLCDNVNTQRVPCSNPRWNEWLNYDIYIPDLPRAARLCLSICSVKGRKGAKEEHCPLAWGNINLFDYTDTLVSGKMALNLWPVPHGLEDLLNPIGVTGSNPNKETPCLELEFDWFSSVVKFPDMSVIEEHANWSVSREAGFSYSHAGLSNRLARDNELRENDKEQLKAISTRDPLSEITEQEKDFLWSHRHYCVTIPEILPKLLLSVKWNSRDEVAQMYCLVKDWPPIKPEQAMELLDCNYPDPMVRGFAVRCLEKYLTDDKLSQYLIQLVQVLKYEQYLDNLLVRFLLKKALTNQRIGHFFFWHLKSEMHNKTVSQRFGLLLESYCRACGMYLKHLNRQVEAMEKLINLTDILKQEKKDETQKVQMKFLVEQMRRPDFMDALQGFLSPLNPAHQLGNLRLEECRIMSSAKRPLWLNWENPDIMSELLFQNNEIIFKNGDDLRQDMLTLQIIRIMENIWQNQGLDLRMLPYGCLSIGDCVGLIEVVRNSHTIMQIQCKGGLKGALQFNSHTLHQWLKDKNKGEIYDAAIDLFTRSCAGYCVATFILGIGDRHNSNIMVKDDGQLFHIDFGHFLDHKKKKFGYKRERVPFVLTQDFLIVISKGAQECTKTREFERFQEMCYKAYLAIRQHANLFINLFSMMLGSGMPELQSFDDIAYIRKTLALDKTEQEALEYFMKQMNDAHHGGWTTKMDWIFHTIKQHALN
# MCF7 [5] = assay: Induction of cell cycle arrest in human MCF7 cells assessed as accumulation of cells at G phase at IC50 concentration by Propidium iodide staining based flow cytometric analysis (reference value: 1.76%); format: functional
# MCF7 [6] = assay: Induction of cell cycle arrest in human MCF7 cells assessed as accumulation of cells at G1 phase at IC50 concentration by Propidium iodide staining based flow cytometric analysis (reference value: 61.45%); format: functional
# MCF7 [7] = assay: Induction of cell cycle arrest in human MCF7 cells assessed as accumulation of cells at G2/M phase at IC50 concentration by Propidium iodide staining based flow cytometric analysis (reference value: 10.94%); format: functional
# MCF7 [8] = assay: Induction of cell cycle arrest in human MCF7 cells assessed as accumulation of cells at S phase at IC50 concentration by Propidium iodide staining based flow cytometric analysis (reference value: 27.61%); format: functional
# MCF7 [9] = assay: Induction of apoptosis in human MCF7 cells assessed as early apoptotic cells at 0.72 uM after 48 hrs by annexin V-FITC/propidium iodide staining based flow cytometric analysis (reference value: 0.36%); format: functional
# MCF7 [10] = assay: Induction of apoptosis in human MCF7 cells assessed as late apoptotic cells at 0.72 uM after 48 hrs by annexin V-FITC/propidium iodide staining based flow cytometric analysis (reference value: 0.14%); format: functional
# MCF7 [11] = assay: Induction of apoptosis in human MCF7 cells assessed as necrotic cells at 0.72 uM after 48 hrs by annexin V-FITC/propidium iodide staining based flow cytometric analysis (reference value: 1.26%); format: functional
# [12] = molecular target: Phosphatidylinositol 4,5-bisphosphate 3-kinase catalytic subunit beta isoform (Homo sapiens, UniProt P42338); assay: Inhibition of PI3Kbeta (unknown origin) using PIP2 as substrate preincubated for 10 mins followed by substrate addition and measured after 1 hr by ELISA
# Sequence of Phosphatidylinositol 4,5-bisphosphate 3-kinase catalytic subunit beta isoform (P42338 whole entry, canonical isoform): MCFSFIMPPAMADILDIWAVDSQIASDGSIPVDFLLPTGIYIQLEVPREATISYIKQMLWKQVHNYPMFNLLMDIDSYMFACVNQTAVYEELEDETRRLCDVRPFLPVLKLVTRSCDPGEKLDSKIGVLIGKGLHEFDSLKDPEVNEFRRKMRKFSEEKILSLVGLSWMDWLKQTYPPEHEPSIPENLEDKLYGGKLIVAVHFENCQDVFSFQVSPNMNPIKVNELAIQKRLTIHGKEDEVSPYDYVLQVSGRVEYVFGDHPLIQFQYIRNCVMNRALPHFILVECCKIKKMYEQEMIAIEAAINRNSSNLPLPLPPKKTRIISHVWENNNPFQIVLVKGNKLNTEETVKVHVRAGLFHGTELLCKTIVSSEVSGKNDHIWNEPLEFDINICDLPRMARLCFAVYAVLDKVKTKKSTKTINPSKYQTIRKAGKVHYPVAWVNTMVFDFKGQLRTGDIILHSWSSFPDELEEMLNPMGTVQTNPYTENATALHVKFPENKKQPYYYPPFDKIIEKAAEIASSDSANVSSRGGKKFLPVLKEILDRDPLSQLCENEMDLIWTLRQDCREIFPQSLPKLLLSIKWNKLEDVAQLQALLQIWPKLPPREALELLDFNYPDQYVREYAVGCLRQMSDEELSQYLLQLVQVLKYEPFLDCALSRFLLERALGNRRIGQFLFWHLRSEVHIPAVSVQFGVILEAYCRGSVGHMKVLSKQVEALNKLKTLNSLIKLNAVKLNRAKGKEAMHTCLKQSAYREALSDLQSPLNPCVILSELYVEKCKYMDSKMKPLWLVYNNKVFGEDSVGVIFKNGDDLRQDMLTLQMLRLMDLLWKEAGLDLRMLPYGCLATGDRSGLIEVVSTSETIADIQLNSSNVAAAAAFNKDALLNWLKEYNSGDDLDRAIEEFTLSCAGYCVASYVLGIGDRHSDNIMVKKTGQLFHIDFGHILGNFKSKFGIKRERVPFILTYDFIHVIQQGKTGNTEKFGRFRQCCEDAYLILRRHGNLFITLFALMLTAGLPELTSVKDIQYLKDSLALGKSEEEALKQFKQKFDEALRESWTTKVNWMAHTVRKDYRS
# [13] = molecular target: T1, Phosphatidylinositol 4,5-bisphosphate 3-kinase catalytic subunit delta isoform (Homo sapiens, UniProt O00329); assay: Inhibition of PI3Kdelta (unknown origin) using PIP2 as substrate preincubated for 10 mins followed by substrate addition and measured after 1 hr by ELISA
# T1 sequence (O00329 whole entry): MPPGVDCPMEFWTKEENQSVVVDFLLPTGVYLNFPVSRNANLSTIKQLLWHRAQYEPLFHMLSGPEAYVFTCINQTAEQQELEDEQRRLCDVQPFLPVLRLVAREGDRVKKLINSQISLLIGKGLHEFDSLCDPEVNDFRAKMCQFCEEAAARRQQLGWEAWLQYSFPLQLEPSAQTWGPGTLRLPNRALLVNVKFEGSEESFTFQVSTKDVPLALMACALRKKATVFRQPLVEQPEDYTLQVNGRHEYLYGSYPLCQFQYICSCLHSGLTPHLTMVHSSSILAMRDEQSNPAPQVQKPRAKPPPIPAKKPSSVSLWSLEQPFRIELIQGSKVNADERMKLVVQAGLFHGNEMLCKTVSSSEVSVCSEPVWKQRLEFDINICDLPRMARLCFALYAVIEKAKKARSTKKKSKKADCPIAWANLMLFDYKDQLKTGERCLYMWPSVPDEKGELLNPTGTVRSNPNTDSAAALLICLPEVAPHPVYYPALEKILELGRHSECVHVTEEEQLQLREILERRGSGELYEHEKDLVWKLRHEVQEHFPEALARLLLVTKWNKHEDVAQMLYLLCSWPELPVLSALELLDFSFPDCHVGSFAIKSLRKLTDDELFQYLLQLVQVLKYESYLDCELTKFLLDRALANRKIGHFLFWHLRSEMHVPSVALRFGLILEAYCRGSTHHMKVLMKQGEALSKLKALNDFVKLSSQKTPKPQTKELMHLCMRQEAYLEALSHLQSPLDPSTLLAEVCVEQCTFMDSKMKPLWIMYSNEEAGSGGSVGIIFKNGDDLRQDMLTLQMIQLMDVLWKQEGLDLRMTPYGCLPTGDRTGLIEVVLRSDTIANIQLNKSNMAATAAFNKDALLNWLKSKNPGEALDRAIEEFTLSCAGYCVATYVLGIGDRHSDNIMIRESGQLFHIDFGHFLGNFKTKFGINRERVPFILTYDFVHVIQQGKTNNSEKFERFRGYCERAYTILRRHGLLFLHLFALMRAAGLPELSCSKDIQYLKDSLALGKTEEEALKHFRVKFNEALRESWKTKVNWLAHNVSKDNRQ
# CCRF-CEM = assay: Cytotoxicity against human CCRF-CEM cells assessed as growth inhibition at 10 uM after 48 hrs by sulforhodamine B assay; format: functional; conditions: read-out: GI
# HL-60(TB) = assay: Cytotoxicity against human HL-60(TB) cells assessed as growth inhibition at 10 uM after 48 hrs by sulforhodamine B assay; format: functional; conditions: read-out: GI
# K562 = assay: Cytotoxicity against human K562 cells assessed as growth inhibition at 10 uM after 48 hrs by sulforhodamine B assay; format: functional; conditions: read-out: GI
# MOLT-4 = assay: Cytotoxicity against human MOLT-4 cells assessed as growth inhibition at 10 uM after 48 hrs by sulforhodamine B assay; format: functional; conditions: read-out: GI
# RPMI-8226 = assay: Cytotoxicity against human RPMI-8226 cells assessed as growth inhibition at 10 uM after 48 hrs by sulforhodamine B assay; format: functional; conditions: read-out: GI
# SR = assay: Cytotoxicity against human SR cells assessed as growth inhibition at 10 uM after 48 hrs by sulforhodamine B assay; format: functional; conditions: read-out: GI
# A549 = assay: Cytotoxicity against human A549 cells assessed as growth inhibition at 10 uM after 48 hrs by sulforhodamine B assay; format: functional; conditions: read-out: GI
# NCI-H226 = assay: Cytotoxicity against human NCI-H226 cells assessed as growth inhibition at 10 uM after 48 hrs by sulforhodamine B assay; format: functional; conditions: read-out: GI
# NCI-H522 = assay: Cytotoxicity against human NCI-H522 cells assessed as growth inhibition at 10 uM after 48 hrs by sulforhodamine B assay; format: functional; conditions: read-out: GI
# HCC 2998 = assay: Cytotoxicity against human HCC 2998 cells assessed as growth inhibition at 10 uM after 48 hrs by sulforhodamine B assay; format: functional; conditions: read-out: GI
# HCT-15 = assay: Cytotoxicity against human HCT-15 cells assessed as growth inhibition at 10 uM after 48 hrs by sulforhodamine B assay; format: functional; conditions: read-out: GI
# HT-29 = assay: Cytotoxicity against human HT-29 cells assessed as growth inhibition at 10 uM after 48 hrs by sulforhodamine B assay; format: functional; conditions: read-out: GI
# KM12 = assay: Cytotoxicity against human KM12 cells assessed as growth inhibition at 10 uM after 48 hrs by sulforhodamine B assay; format: functional; conditions: read-out: GI
# LOX IMVI = assay: Cytotoxicity against human LOX IMVI cells assessed as growth inhibition at 10 uM after 48 hrs by sulforhodamine B assay; format: functional; conditions: read-out: GI
# M14 = assay: Cytotoxicity against human M14 cells assessed as growth inhibition at 10 uM after 48 hrs by sulforhodamine B assay; format: functional; conditions: read-out: GI
# UACC-62 = assay: Cytotoxicity against human UACC-62 cells assessed as growth inhibition at 10 uM after 48 hrs by sulforhodamine B assay; format: functional; conditions: read-out: GI
# OVCAR-4 = assay: Cytotoxicity against human OVCAR-4 cells assessed as growth inhibition at 10 uM after 48 hrs by sulforhodamine B assay; format: functional; conditions: read-out: GI
# NCI/ADR-RES = assay: Cytotoxicity against human NCI-ADR-RES cells assessed as growth inhibition at 10 uM after 48 hrs by sulforhodamine B assay; format: functional; conditions: read-out: GI
# ACHN = assay: Cytotoxicity against human ACHN cells assessed as growth inhibition at 10 uM after 48 hrs by sulforhodamine B assay; format: functional; conditions: read-out: GI
# CAKI-1 = assay: Cytotoxicity against human CAKI-1 cells assessed as growth inhibition at 10 uM after 48 hrs by sulforhodamine B assay; format: functional; conditions: read-out: GI
# SN12C = assay: Cytotoxicity against human SN12C cells assessed as growth inhibition at 10 uM after 48 hrs by sulforhodamine B assay; format: functional; conditions: read-out: GI
# UO-31 = assay: Cytotoxicity against human UO-31 cells assessed as growth inhibition at 10 uM after 48 hrs by sulforhodamine B assay; format: functional; conditions: read-out: GI
# DU-145 = assay: Cytotoxicity against human DU-145 cells assessed as growth inhibition at 10 uM after 48 hrs by sulforhodamine B assay; format: functional; conditions: read-out: GI
# T47D = assay: Cytotoxicity against human T47D cells assessed as growth inhibition at 10 uM after 48 hrs by sulforhodamine B assay; format: functional; conditions: read-out: GI
# MCF7 [14] = assay: Induction of apoptosis in human MCF7 cells assessed as early apoptotic cells at 2.25 uM after 48 hrs by annexin V-FITC/propidium iodide staining based flow cytometric analysis (reference value: 0.36%); format: functional
# MCF7 [15] = assay: Induction of apoptosis in human MCF7 cells assessed as late apoptotic cells at 2.25 uM after 48 hrs by annexin V-FITC/propidium iodide staining based flow cytometric analysis (reference value: 0.14%); format: functional
# MCF7 [16] = assay: Induction of apoptosis in human MCF7 cells assessed as necrotic cells at 2.25 uM after 48 hrs by annexin V-FITC/propidium iodide staining based flow cytometric analysis (reference value: 1.26%); format: functional
smiles,measurement,setting,value
O=S(=O)(Oc1ccc(/C=N/N=c2\scc(-c3ccccc3)n2-c2ccccc2)cc1)C(F)(F)C(F)(F)C(F)(F)C(F)(F)F,inhibition of growth at 10 µM,MCF7 [1],65.5%
same,IC50,MCF7 [2],0.72 µM
same,IC50,MCF-10A,28.2 µM
same,selectivity ratio,[3],39.2
same,IC50,[4],5.8 µM
same,Activity,MCF7 [5],42.38%
same,Activity,MCF7 [6],49.27%
same,Activity,MCF7 [7],7.61%
same,Activity,MCF7 [8],43.12%
same,Activity,MCF7 [9],6.18%
same,Activity,MCF7 [10],21.88%
same,Activity,MCF7 [11],14.32%
same,IC50,[12],2.3 µM
same,IC50,[13],7.9 µM
FC(F)(F)COc1ccc(-c2nnc(Nc3ccccc3)s2)cc1,inhibition of growth at 10 µM,CCRF-CEM,19.2%
same,inhibition of growth at 10 µM,HL-60(TB),12.6%
same,inhibition of growth at 10 µM,K562,57.4%
same,inhibition of growth at 10 µM,MOLT-4,24.1%
same,inhibition of growth at 10 µM,RPMI-8226,13.4%
same,inhibition of growth at 10 µM,SR,39.3%
same,inhibition of growth at 10 µM,A549,15%
same,inhibition of growth at 10 µM,NCI-H226,20.5%
same,inhibition of growth at 10 µM,NCI-H522,36.7%
same,inhibition of growth at 10 µM,HCC 2998,27.5%
same,inhibition of growth at 10 µM,HCT-15,50.9%
same,inhibition of growth at 10 µM,HT-29,45.7%
same,inhibition of growth at 10 µM,KM12,57.2%
same,inhibition of growth at 10 µM,LOX IMVI,18.8%
same,inhibition of growth at 10 µM,M14,12.8%
same,inhibition of growth at 10 µM,UACC-62,24.4%
same,inhibition of growth at 10 µM,OVCAR-4,12.8%
same,inhibition of growth at 10 µM,NCI/ADR-RES,10.8%
same,inhibition of growth at 10 µM,ACHN,16.1%
same,inhibition of growth at 10 µM,CAKI-1,50%
same,inhibition of growth at 10 µM,SN12C,13.1%
same,inhibition of growth at 10 µM,UO-31,21.4%
same,inhibition of growth at 10 µM,DU-145,14.8%
same,inhibition of growth at 10 µM,MCF7 [1],21.2%
same,inhibition of growth at 10 µM,T47D,27.7%
same,IC50,MCF7 [2],2.25 µM
same,IC50,MCF-10A,38 µM
same,selectivity ratio,[3],16.9
same,IC50,[4],19.4 µM
same,Activity,MCF7 [5],26.96%
same,Activity,MCF7 [6],66.34%
same,Activity,MCF7 [7],4.55%
same,Activity,MCF7 [8],29.11%
same,Activity,MCF7 [14],4.15%
same,Activity,MCF7 [15],13.09%
same,Activity,MCF7 [16],9.72%
same,IC50,[12],30.7 µM
same,IC50,[13],73.7 µM
